In ChEMBL document CHEMBL5653603 (J Am Chem Soc, 2010):
Calls of active or inactive are those of the source. No cut-off for these calls is given here.

Legend:
Histone deacetylase 1 = Histone deacetylase 1 (Homo sapiens, UniProt Q13547); experiment: Inhibition of recombinant human HDAC1 using fluorogenic RHKKAc peptide as substrate by fluorescence assay; type: single protein
[1] = biological target: T1, Protein deacetylase HDAC6 (Homo sapiens, UniProt Q9UBN7); experiment: Inhibition of recombinant human HDAC6 using fluorogenic RHKKAc peptide as substrate by fluorescence assay
T1 sequence (Q9UBN7 whole entry): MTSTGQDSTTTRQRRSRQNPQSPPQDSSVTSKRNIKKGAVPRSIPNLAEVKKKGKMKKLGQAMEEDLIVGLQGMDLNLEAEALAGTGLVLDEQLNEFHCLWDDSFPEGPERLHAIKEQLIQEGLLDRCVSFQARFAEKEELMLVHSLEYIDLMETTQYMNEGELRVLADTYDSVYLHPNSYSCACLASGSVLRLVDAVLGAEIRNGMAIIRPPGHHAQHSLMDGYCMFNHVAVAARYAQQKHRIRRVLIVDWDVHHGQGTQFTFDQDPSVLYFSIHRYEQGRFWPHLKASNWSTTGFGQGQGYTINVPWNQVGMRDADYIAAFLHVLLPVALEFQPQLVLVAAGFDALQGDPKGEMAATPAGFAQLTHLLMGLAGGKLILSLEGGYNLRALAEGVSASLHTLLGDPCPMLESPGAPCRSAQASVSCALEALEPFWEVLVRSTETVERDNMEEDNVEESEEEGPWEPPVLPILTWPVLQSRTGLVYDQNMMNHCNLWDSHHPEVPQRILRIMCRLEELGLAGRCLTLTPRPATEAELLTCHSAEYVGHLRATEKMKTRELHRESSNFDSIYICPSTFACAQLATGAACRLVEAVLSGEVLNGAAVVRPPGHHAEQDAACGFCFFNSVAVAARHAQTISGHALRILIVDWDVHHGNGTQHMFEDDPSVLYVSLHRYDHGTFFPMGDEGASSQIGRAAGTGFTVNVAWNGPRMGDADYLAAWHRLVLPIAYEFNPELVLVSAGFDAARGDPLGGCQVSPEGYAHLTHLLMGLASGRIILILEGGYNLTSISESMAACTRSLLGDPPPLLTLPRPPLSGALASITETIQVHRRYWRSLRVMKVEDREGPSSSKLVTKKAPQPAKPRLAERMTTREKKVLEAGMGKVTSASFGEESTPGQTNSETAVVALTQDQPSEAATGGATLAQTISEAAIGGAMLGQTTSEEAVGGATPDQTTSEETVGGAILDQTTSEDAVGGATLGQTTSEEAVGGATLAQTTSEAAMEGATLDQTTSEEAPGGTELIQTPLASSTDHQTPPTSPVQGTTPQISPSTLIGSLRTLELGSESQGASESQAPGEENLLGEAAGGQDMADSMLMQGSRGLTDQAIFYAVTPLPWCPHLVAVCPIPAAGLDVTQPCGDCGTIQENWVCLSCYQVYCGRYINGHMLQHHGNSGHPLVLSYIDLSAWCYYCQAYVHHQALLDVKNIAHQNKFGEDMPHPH

Homo sapiens = species on record: Homo sapiens; experiment: Selectivity ratio of IC50 for recombinant human HDAC1 to IC50 for recombinant human HDAC6
Primary cortical neuron = experiment: Inhibition of HDAC6 in Sprague-Dawley rat primary cortical neurons assessed as induction of alpha-tubulin hyperacetylation at 2.5 uM measured after 30 mins by Western blot analysis; type: cell-based
[2] = Neurotoxicity against Sprague-Dawley rat primary cortical neurons assessed as reduction in neuron survival at 1 to 10 uM measured after 24 hrs by MTT assay; type: toxicity, cell-based; conditions: cortical neurone, dose 1-10 µM
[3] = Inhibition of class 1 HDAC in Sprague-Dawley rat primary cortical neurons assessed as induction of histone hyperacetylation at 10 uM measured after 30 mins by Western blot analysis; type: cell-based; conditions: primary cortical neuron, 0.5 h
Cortical neurone [4] = experiment: Neuroprotective activity against HCA-induced Sprague-Dawley rat primary cortical neuron death assessed as increase in neuron survival measured after 24 hrs by MTT assay; type: functional, cell-based; conditions: dose 1-10 µM
Cortical neurone [5] = experiment: Neuroprotective activity against HCA-induced Sprague-Dawley rat primary cortical neuron death assessed as increase in neuron survival at 0.5 uM measured after 24 hrs by MTT assay; type: functional, cell-based

Sequence of Histone deacetylase 1 (Q13547 whole entry): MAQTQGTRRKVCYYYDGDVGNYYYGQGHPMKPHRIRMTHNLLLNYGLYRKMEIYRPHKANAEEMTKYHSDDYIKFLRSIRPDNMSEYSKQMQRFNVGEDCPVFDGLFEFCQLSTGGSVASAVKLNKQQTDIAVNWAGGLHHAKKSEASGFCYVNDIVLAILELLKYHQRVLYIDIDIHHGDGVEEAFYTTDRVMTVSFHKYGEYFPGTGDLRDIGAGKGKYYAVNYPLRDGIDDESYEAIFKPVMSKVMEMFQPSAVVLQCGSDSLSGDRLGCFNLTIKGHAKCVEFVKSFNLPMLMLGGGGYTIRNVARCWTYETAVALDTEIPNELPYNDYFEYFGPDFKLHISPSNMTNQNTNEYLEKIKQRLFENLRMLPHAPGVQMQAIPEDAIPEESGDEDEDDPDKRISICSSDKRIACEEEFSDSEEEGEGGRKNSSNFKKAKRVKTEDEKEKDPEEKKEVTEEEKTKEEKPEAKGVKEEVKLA

Compound	IC50 (Histone deacetylase 1) [µM]	IC50 [1] [µM]	other results
O=C(NO)c1ccc(CCn2c3ccccc3c3ccccc32)cc1	> 30	0.18	
O=C(CCCCCn1c2ccccc2c2ccccc21)NO	14	0.062	Ratio IC50 (Homo sapiens): 226
O=C(NO)c1ccc(Cn2c3ccccc3c3ccccc32)cc1	10.9		Ratio IC50 (Homo sapiens): 574
CN1CCc2c(c3ccccc3n2Cc2ccc(C(=O)NO)cc2)C1.O=C(O)C(F)(F)F			inhibition (Primary cortical neuron): Active; Activity [2]: Non-Toxic; inhibition (INH) [3]: Active; Activity (Cortical neurone [4]): Dose-Dependent Effect
O=C(NO)n1c2ccccc2c2ccccc21	> 30	> 30	
CN1CCc2c(c3ccccc3n2CCCCCC(=O)NO)C1	25.2	0.213	
O=C(CCCCCn1c2c(c3ccccc31)CCCC2)NO	8.6	0.09	
O=C(Cc1ccc(Cn2c3ccccc3c3ccccc32)cc1)NO	> 30	0.301	
CN1CCc2c(n(Cc3ccc(C(=O)NO)cc3)c3ccccc23)C1	5.18	0.001	Ratio IC50 (Homo sapiens): 3700
O=C(CCCCCCC(=O)Nc1ccc([C@H]2O[C@@H](CSc3nc(-c4ccccc4)c(-c4ccccc4)o3)C[C@@H](c3ccc(CO)cc3)O2)cc1)NO			inhibition (Primary cortical neuron): Active
CC(/C=C/C(=O)NO)=C\[C@@H](C)C(=O)c1ccc(N(C)C)cc1 [TRICHOSTATIN]			Activity (Cortical neurone [5]): Active; Activity [2]: Toxic
O=C(CCn1c2ccccc2c2ccccc21)NO	> 30		
CN1CCc2c(n(CCCCCC(=O)NO)c3ccccc23)C1	> 30	0.55	
